Assay results published in US20020098186A1, “Use of endothelin inhibitors for treatment or prevention of fibrotic disorders” (priority 1999, published 2002).

Legend:
[1] = tested on: aminoterminal propeptide of procollagen type III (PIIINP); experiment: Serum PIIINP radioimmunoassay in BDO rats; assay type: in vivo, rat; details: LU-treated BDO rats, dose-dependent
Protocol: Female adult wistar rats, average weight 206±19 g, underwent the following microsurgical procedure under an operating microscope (OPMI 6-2, Zeiss, Germany) (B. Gerling, M. Becker, J. Waldschmidt, D. Schuppan (1996). J. Hepatol. 25:79-84; G. Boigk, L. Stroedter, H. Herbst H, et al. (1997). Hepatology 26:643-639.): 1. midline abdominal incision following anaesthesia with 100 mg/kg ketamine-hydroochloride (Ketanest®, Parke-Davis, Germany) and 10 mg/kg 5,6-dihydro-2-(2,6-xylidino)-4H-1,3-thiazine-hydrochloride (Rompun®, Bayer, Germany); 2. dissection of the common bile duct, insertion of a teflon catheter (Abbocath -T 26 G, venisystems, U.S.A.) and placement of a distal complete and a proximal incomplete ligature with 5-0 silk (Permahand , Ethicon, Germany); 3. retrograde injection of sodium-amidotrizoate (Ethibloc®, Ethicon Germany) at a dose of 0.02 ml/100 g body weight; 4. removal of the catheter, closure of the proximal ligature, scission of the bile duct between the ligatures and wound closure. After bile duct occlusion (BDO), animals received normal chow (Altromin®, Lage, Germany) and were allowed free access to water. […] The following therapeutic groups were formed: 1. BDO and LU at 80 mg/kg/d for 6 weeks (BDO 80/1-6:n=20); 2. […]
Standard laboratory parameters were measured by our in-hospital clinical chemical department, using an automated analyser (BM/Hitachi 747). […]

[2] = Tolerability in BDO and sham-operated rats (death, renal toxicity, food consumption, measured parameters); assay type: in vivo
Protocol: Female adult wistar rats, average weight 206±19 g, underwent the following microsurgical procedure under an operating microscope (OPMI 6-2, Zeiss, Germany) (B. Gerling, M. Becker, J. Waldschmidt, D. Schuppan (1996). J. Hepatol. 25:79-84; G. Boigk, L. Stroedter, H. Herbst H, et al. (1997). Hepatology 26:643-639.): 1. midline abdominal incision following anaesthesia with 100 mg/kg ketamine-hydroochloride (Ketanest®, Parke-Davis, Germany) and 10 mg/kg 5,6-dihydro-2-(2,6-xylidino)-4H-1,3-thiazine-hydrochloride (Rompun®, Bayer, Germany); 2. dissection of the common bile duct, insertion of a teflon catheter (Abbocath -T 26 G, venisystems, U.S.A.) and placement of a distal complete and a proximal incomplete ligature with 5-0 silk (Permahand , Ethicon, Germany); 3. retrograde injection of sodium-amidotrizoate (Ethibloc®, Ethicon Germany) at a dose of 0.02 ml/100 g body weight; 4. removal of the catheter, closure of the proximal ligature, scission of the bile duct between the ligatures and wound closure. After bile duct occlusion (BDO), animals received normal chow (Altromin®, Lage, Germany) and were allowed free access to water. […] The following therapeutic groups were formed: 1. BDO and LU at 80 mg/kg/d for 6 weeks (BDO 80/1-6:n=20); 2. BDO and LU at 80 mg/kg/d from week 4-6 of BDO (BDO 80/4-6:n=20); 3. BDO and LU at 10 mg/kg/d (sham 80/ 1-6:n=10), rats without medication (control: n=10) and bile duct occluded animals without treatment for 6 weeks (BDO: n=20) served as controls.
Early mortality (within 1 h to 3 days) in rats with BDO was due to local infection and amounted to 9%. […] After 6 weeks rats were sacrificed under ketanest(rompun-anaesthesia by puncture of the right ventricle and exsanguination. Heart, liver, spleen and kidneys were weighed, and 1-2 g pieces of the left and the right liver lobes fixed in 4% formalin for histology and hydroxyproline (HYP) determinations.
Rats with sham operation and rats with BDO were fed the oral endothelin A receptor antagonist LU 135252 (LU).
However, liver collagen (both as relative and total liver collagen content), which was increased 6- and 12-fold above normal, resp., in the untreated group with BDO, was reduced by 50-55% in rats on 80 mg LU/kg/d over the 6 weeks of BDO (p<0.001) (FIG. 1). […] Since contrary to the sham-operated rats, LU at 80 mg/kg/d which represents a high dose, caused death dose-dependently due to rental tubular necrosis in 50% and 25% of the two treatment groups, resp., a second experiment with a lower dose (10 mg/kg/d) over 6 weeks of BDO was performed.

TIMP-1 RNA = experiment: Multiprobe RNAse protection assay of liver RNA, TIMP-1; assay type: in vivo, rat; details: BDO rats, LU 80 mg/kg/d for 6 weeks; relative to GAPDH; p<0.05
Protocol: Plasmids encoded predescribed regions of the rat procollagen α1 (I) and […] (GAPDH) genes, encompassing 230 bp (Bam HI/Rsal sites) and 102 bp (position 335-437), resp. (44, 45). The rat tissue inhibitor of metalloproteinase-1 (TIMP-1) probe (position 176-439) was prepared by RT-PCR according to the published sequence (J. P. Iredale, R. C. Benyon, M. J. P. Arthur (1996). Hepatology 24:176-184.), cloned into pZErO-1 (Invitrogen, San Diego, Calif., U.S.A.) and confirmed by restriction enzyme analysis. Preparation of riboprobes: The cDNA templates were linearized with appropriate restriction endonucleases. […] Riboprobes were purified by electrophoresis through a denaturing polyacrylamide gel and the radioactivity of eluted probes were measured by liquid scintillation counting. […] Autoradiographic signals were analyzed with the public domain NTH Image Program. The procollagen α1(I) and TIMP-1 RNA signals were normalized to the signal of GAPDH RNA and expressed as relative abundance (arbitrary units). 10 liver samples each of negative controls, of untreated rats with BDO and of rats with BDO that received LU at 80 mg/kg/d were analyzed.

Question: Which results are given for `COc1cc(OC)nc(O[C@H](C(=O)O)C(OC)(c2ccccc2)c2ccccc2)n1` [LU]?
Answer: Lowering of serum PIIINP [1]: 20-50%; Death or renal toxicity ([2]; BDO rats, 10 mg/kg/d over 6 weeks): no death or renal toxicity was observed; Death due to renal tubular necrosis (share of treatment group) ([2]; BDO rats, LU 80 mg/kg/d for 6 weeks): 50%; Death due to renal tubular necrosis (share of treatment group) ([2]; BDO rats, LU 80 mg/kg/d from week 4-6): 25%; Food consumption by the animals ([2]; LU mixed with the chow): did not alter food consumption; Measured parameters (body and organ weights, liver collagen, liver histology, clinical chemical values) ([2]; sham-operated rats, LU 80 mg/kg/d for 6 weeks): did not alter any of the measured parameters; Reduction of TIMP-1 mRNA level (TIMP-1 RNA): 55%
